Laboratory results: US10077446B2, “Glucan-encapsulated siRNA for treating type 2 diabetes mellitus” (The United States of America, as represented by THE …, priority 2013, dated 2018)

How the values were obtained:
[1] = test system: Zucker diabetic fatty (ZDF) rats; test: Glucose-stimulated insulin secretion in intact ZDF rats and isolated islets; type: in vivo, rat
Procedure: Rats were fasted for 12 h, and tail blood was collected to determine basal insulin and c-peptide levels. Rats were then given glucose (3 g/kg) orally by gavage, and, 5 minutes later, tail blood was again collected for determining insulin and c-peptide levels, with the difference over baseline insulin considered as a measure of glucose-induced insulin release, and the comparison with parallel changes in c-peptide levels used to assess the role of insulin production vs. clearance in the observed change in plasma insulin levels.
After 4 days recovery, pancreata from treated animals were inflated via the common bile duct with a solution of LIBERASE™ TL Research Grade (1.18 U/ml, Roche Diagnostics) and digested for 30 min at 37° C. Islets were purified on a discontinuous Ficoll gradient (GE HEALTHCARE) and hand-picked under a stereomicroscope for immediate assessment of […] function by static incubation. Right after isolation, batches of 4 islets were pre-incubated for 2 h in RPMI 1640 containing NaHCO3 (2 g/l), HEPES (25 mM), 10% (v/v) neonatal calf serum (Invitrogen), pH 7.2, and 0.5 g/L glucose at 37° C. in an incubator containing 5% CO2. This was followed by successive 1 h incubations in the presence of 0.5, 1, 1.5, 2, and 3 g/L glucose. Supernatants were collected in each step for insulin quantification (Crystal Chem Inc). […]

[2] = test system: Zucker diabetic fatty (ZDF) rats; test: 12-week JD5037 treatment of 6-week-old pre-diabetic ZDF rats; type: in vivo, rat; settings: pre-diabetic 6-week-old ZDF rats, daily JD5037 for 3 months
Procedure: In the first one, 8-week old diabetic ZDF rats were given 3 mg/kg JD5037 or vehicle for 28 days with lean controls receiving vehicle only. In the second protocol, similar treatment was started in 6-week old pre-diabetic ZDF rats and age-matched lean controls, and treatment continued for 12 weeks until the age of 18 weeks. Body weight and food intake were monitored daily. At the end of treatment in both protocols, rats were sacrificed by decapitation, the brain, liver, kidney, pancreas and combined fat pads were removed, weighed, and snap-frozen in liquid nitrogen or fixed in formalin, and trunk blood was collected for determining endocrine and biochemical parameters. Adiposity index was defined as the combined weight of the epidydimal, retroperitoneal and inguinal fat pads, expressed as % of total body weight. […]
Blood glucose levels were determined using the Elite glucometer (Bayer, Pittsburgh, Pa.). […] Plasma insulin was measured using the Ultra Sensitive rat Insulin ELISA kit (Crystal Chem Inc). Hemoglobin A1c was determined using the Rat Hemoglobin A1c (HbA1c) assay kit (Crystal Chem) and c-peptide was quantified by ELISA (C-peptide (rat) ELISA, ALPCO). Serum leptin and adiponectin were determined by ELISA (B-Bridge International). α-amylase, lipase, and uric acid concentrations were determined using commercially available colorimetric kits (BioAssay Systems). […]

[3] = test system: Zucker diabetic fatty (ZDF) rats; test: Hyperinsulinemic euglycemic clamp in ZDF rats; type: in vivo, rat
Procedure: Clamps and glucose tracer analyses in conscious, cannulated rats were performed as described: right jugular vein of 3 rats per group was catheterized a week prior to the experiment, and clamps were performed by continuous infusion of insulin at 3 mU/kg/min and co-infusion of 3H-D-glucose to maintain euglycemia. The protocol for radioactive clamps to evaluate glucose fluxes was adapted from Buettner, et al. (Buettner, et al. 2005 J Clin Invest 115:1306-1313). 3H-D-glucose (Perkin Elmer) was first infused at 0.8 μCi/min for one minute and then at 0.04 μCi/min for 2 h prior to insulin infusion, and the tritiated glucose infusion was pursued during the rest of the experiment at the same rate. 10 μl of blood were sampled from the tail 15 and 5 min before starting insulin infusion and 30, 20, 10 minutes before the end of the experiment.
Blood samples were centrifuged in order to obtain serum. Serum was snap frozen on dry ice and, once all the samples were available, 5 μl serum was transferred to 25 μl dionized water and then mixed with 25 μl of 0.1N ZnSO4. Samples were precipitated with addition of 25 μl of 0.1N Ba(OH)2. After centrifugation, the supernatant was dried overnight, resuspended in water, and counted in scintillation liquid. Glucose turnover was calculated as the ratio of tritiated glucose infusion rate over the specific activity of blood glucose.

[4] = test system: Zucker diabetic fatty (ZDF) rats; test: 28-day oral JD5037 treatment of 8-week-old diabetic ZDF rats; type: in vivo, rat
Text: Zucker diabetic fatty (ZDF) rats were used to assess the role of endocannabinoids and CB1R in glycemic control and β-cell loss Animal protocols were approved by the Institutional Animal Care and Use Committee of the NIAAA, NIH. Male ZDF rats with their lean controls were obtained from Charles River Laboratories (Wilmington, Mass. 01887, USA). Rats were individually housed and maintained under a 12-h light/dark cycle and fed ad libitum with a standard laboratory diet (STD, NIH-31 rodent diet).
ZDF rats received JD5037 or vehicle (4% DMSO+1% Tween 80 in PBS) by oral gavage according to 2 different protocols. JD5037 was synthesized and its pharmacological properties analyzed as described earlier (Tam, et al. 2012 Cell Metab 16, 167-179). […]
In the first one, 8-week old diabetic ZDF rats were given 3 mg/kg JD5037 or vehicle for 28 days with lean controls receiving vehicle only. In the second protocol, similar treatment was started in 6-week old pre-diabetic ZDF rats and age-matched lean controls, and treatment continued for 12 weeks until the age of 18 weeks. Body weight and food intake were monitored daily. At the end of treatment in both protocols, rats were sacrificed by decapitation, the brain, liver, kidney, pancreas and combined fat pads were removed, weighed, and snap-frozen in liquid nitrogen or fixed in formalin, and trunk blood was collected for determining endocrine and biochemical parameters. Adiposity index was defined as the combined weight of the epidydimal, retroperitoneal and inguinal fat pads, expressed as % of total body weight. In the second protocol, blood samples were taken weekly to assess the progression of T2DM by measuring blood glucose and monthly to measure insulin and c-peptide levels.
(§1) Blood glucose levels were determined using the Elite glucometer (Bayer, Pittsburgh, Pa.). […] Plasma insulin was measured using the Ultra Sensitive rat Insulin ELISA kit (Crystal Chem Inc). Hemoglobin A1c was determined using the Rat Hemoglobin A1c (HbA1c) assay kit (Crystal Chem) and c-peptide was quantified by ELISA (C-peptide (rat) ELISA, ALPCO). Serum leptin and adiponectin were determined by ELISA (B-Bridge International). α-amylase, lipase, and uric acid concentrations were determined using commercially available colorimetric kits (BioAssay Systems). TNF-α and IL-1β were determined using TNF-α ELISA Kit (for Lysates) (RayBiotech, Inc.) and IL1β Rat ELISA Kit (Abeam), respectively.
To determine intra-hepatic triglyceride and cholesterol content, liver tissue was extracted as described previously (Folch, et al. 1957 J Biol Chem 226:497-509). After extraction, 0.5 ml of organic phase was transferred to a clean tube containing 1 ml of 2% Triton X-100 in chloroform and dried using nitrogen. The residue was re-solubilized in 1 ml of distilled water and used for triglycerides content using EnzyChrom™ Triglyceride Assay Kit.
Pancreas was fixed in 10% neutral buffered formalin (NBF), embedded in paraffin and sectioned ([…]) onto glass slides. […] For detection, secondary Ab coupled to FITC or PE were used (Table 2). Images were viewed with a Fluoview FV10i confocal microscope system (Olympus). […]

[5] = test system: Zucker diabetic fatty (ZDF) rats; test: 10-day i.p. treatment of ZDF rats with glucan-encapsulated CB1R siRNA (GeRPs); type: in vivo, rat; settings: daily i.p. GeRPs for 10 days
Procedure: as §1
Pancreas was fixed in 10% neutral buffered formalin (NBF), embedded in paraffin and sectioned ([…]) onto glass slides. […] For detection, secondary Ab coupled to FITC or PE were used (Table 2). Images were viewed with a Fluoview FV10i confocal microscope system (Olympus). Images were then analyzed using image J software and the presence or absence of co-localization was assessed by calculating the Pearson's coefficient.
Fluorescein (FITC)-labeled glucan shells were prepared as previously described (Tesz, et al. 2011 Biochemical Journal 436:351-362). To prepare a GeRP dose for one rat, 50 nmoles siRNA (Dharmacon) were incubated with 500 nmoles Endo-Porter (Gene Tools) in 30 mM sodium acetate pH 4.8 for 15 min at RT in a final volume of 200 μl. The siRNA/Endo-Porter solution was added to 10 mg ([…]) of FITC-glucan shells and then vortexed and incubated for 1 hour. The siRNA loaded GeRPs were then resuspended in 5 ml PBS and sonicated to ensure homogeneity of the GeRP preparation. […]
(§2) Total mRNA from the liver, pancreas and kidney were extracted with Trizol (Invitrogen), while total mRNA from cells was extracted using RNEASY™ Mini Kit (Qiagen). […] QUANTITECT™ Primer Assays were used to detect gene expression (Table 3, which lists the primers used for rat and mice (tissue)). […]

[6] = test system: CB1R mRNA; test: CB1R gene silencing by siRNA/EP in peritoneal elicited macrophages (PEC), qPCR; type: cell-based, rat
Procedure: (§3) Eight-week old ZDF rats were injected i.p. with 4% thioglycollate broth (Sigma-Aldrich). Five days following injection, the peritoneal cavity was washed with PBS and peritoneal fluid was filtered through a 70 μm diameter pore nylon mesh and centrifuged. The pellet was first treated with red blood cell lysis buffer and plated in DMEM supplemented with 10% fetal bovine serum (FBS), 50 μg/ml streptomycin and 50 units/ml penicillin. 24 hours after isolation peritoneal elicited cells (PEC) were treated with siRNA. Eighty, 160 or 240 pmoles of scrambled or CB1R siRNA (Dharmacon) was incubated with 3 nmoles EP in PBS for 15 min and added to 1×10^6 cells. 48 hours after treatment, mRNA were extracted, reversed transcribed and the degree of CB1R knock-down was analyzed by qPCR.
Total mRNA from the liver, pancreas and kidney were extracted with Trizol (Invitrogen), while total mRNA from cells was extracted using RNEASY™ Mini Kit (Qiagen). All extractions were followed by DNase I treatment (Invitrogen). Total mRNA was reverse-transcribed using the ISCRIPT™ cDNA kit (Bio-Rad). Real-time PCR was performed as described previously (Jourdan, et al. 2010 Diabetes 59:926-934) in a 96-well plate using a STEPONEPLUS™ real time PCR system (Applied Biosystems). QUANTITECT™ Primer Assays were used to detect gene expression (Table 3, which lists the primers used for rat and mice (tissue)). […]

[7] = test system: CB2R mRNA; test: siRNA specificity: CB2 receptor expression in peritoneal elicited macrophages (PEC); type: cell-based, rat; settings: thioglycollate-induced PEC
Procedure: The specificity of each siRNA was measured in terms of knockdown of CB2 receptor expression, and a dose-response analysis of siRNA C was carried out.
as §3
as §2, with “(Qiagen). All extractions were followed by DNase I treatment (Invitrogen). Total mRNA was reverse-transcribed using the ISCRIPT™ cDNA kit (Bio-Rad).” for “(Qiagen).”

[8] = ZDF rats, 3 mg/kg JD5037 oral, 28 days
[9] = plasma, ZDF rats, 3 mg/kg/day JD5037 for 28 days, mean ± SEM

## CC(C)[C@H](N/C(=N\S(=O)(=O)c1ccc(Cl)cc1)N1C[C@H](c2ccccc2)C(c2ccc(Cl)cc2)=N1)C(N)=O [JD5037, (S)-2-((S,E)-3-(4-chlorophenyl)-N′-((4-chlorophenyl)sulfonyl)-4-phenyl-4,5-dihydro-1H-pyrazole-1-carboximidamido)-3-methylbutanamide]
[1]; ZDF rats, JD5037-treated
  elevated basal insulin levels: did not affect
[1]; both in vivo and in vitro (isolated islets)
  GSIS (glucose-stimulated insulin secretion): restored
[2]
  hyperglycemia: attenuated and its development delayed
  rapid decline in plasma insulin and c-peptide: largely prevented
[3]
  insulin resistance: not significantly affected
[3]; FIG. 1d
  peripheral glucose uptake: slightly improves
[4]; ZDF islets/pancreas, JD5037 28 days
  elevated Nlrp3, IL-1β, IL-18, p65 NFκB, caspase-1 activity, TXNIP and IL-1 receptor mRNA: completely reversed
[4]; ZDF pancreas, JD5037 4 weeks
  ASC mRNA: normalized
  small increase in AIM-2 expression: unaffected
[4]; ZDF pancreas, JD5037 28 days
  expression of the IL-1R antagonist: increased
[4]; [8]
  body weight or adiposity: did not affect
  food intake: small reduction
  hyperglycemia of ZDF rats: completely reversed
  hyperinsulinemia (along with increased C-peptide levels): paradoxically enhanced
  steatosis, associated hepatocellular damage, increased lipogenic gene expression: greatly attenuated
[4]; ZDF rats, 3 mg/kg JD5037 oral, 28 days, FIG. 1c
  fasting blood glucose and HbA1c: normalizes
[4]; ZDF rats, JD5037 4 weeks
  Tunel-positive islet cells: reduced number
  decreased plasma adiponectin and pancreatic expression of adipoR1 and adipoR2: reversed
  insulin mRNA and protein in ZDF islets: normalized
  reduced pancreatic expression of glucokinase (Glck) and Glut2: normalized
[4]; ZDF rats, JD5037 4 weeks, LC/MS/MS
  increased pancreatic anandamide levels: normalized
[4]; ZDF rats, JD5037 28 days
  macrophage infiltration of islets: reduced
[4]; ZDF vs. lean rats, JD5037 4 weeks
  rise in expression of CB1R in islets: reversed
[4]; [9]
  Adiponectin: 5.70 ± 0.07 µg/mL
  Cholesterol: 104.8 ± 3.85 mg/dL
  IL-1β: 7.63 ± 0.78 ng/mL
  Leptin: 9.48 ± 0.31 ng/mL
  TG: 817.6 ± 31.36 mg/dL
  TNF-α: 0.83 ± 0.07 pg/mL
  Uric acid: 2.57 ± 0.04 µg/mL

## sense GCAUCAAGAGCACCGUUAAUU (SEQ ID NO: 9), antisense UUAACGGUGCUCUUGAUGCUU (SEQ ID NO: 10) (listed as RNA, chemistry not given here) [siRNA C, siRNA directed against rat CB1R, selected for in vivo use]
[5]
  glycemia and insulinemia: remained normoglycemic and hyperinsulinemic
  insulin expression and content in islets: increased
  macrophage infiltration and expression of Nlrp3-ASC, IL-1β, IL-18, MCP-1 and CB1R: decreased
[6]; rat CB1R siRNAs A-D
  degree of knockdown among the four siRNA sequences: greatest degree of knockdown
[6]; thioglycollate-induced PEC, 48 h, dose-dependent, preliminary experiments
  suppression of CB1R mRNA: > 95%
[7]
  CB2R mRNA: no change
